According to ChEMBL document CHEMBL1275538, “In vitro activity of OPT-80 tested against clinical isolates of toxin-producing Clostridium difficile” (Antimicrob Agents Chemother, 2008):
Values after ≈ are worked out from the molar mass of the structure shown.

What was measured:
Clostridioides difficile [1] = test: Antibacterial activity against toxin-positive Clostridium difficile clinical isolate by agar dilution method in presence of clavulanic acid; format: functional
Clostridioides difficile [2] = test: Antibacterial activity against toxin-positive Clostridium difficile clinical isolate by agar dilution method; format: functional
Clostridioides difficile [3] = test: Antibacterial activity against toxin-positive Clostridium difficile clinical isolate assessed as percent of susceptible isolates by agar dilution method; format: functional
Clostridioides difficile [4] = test: Antibacterial activity against Clostridium difficile by agar dilution method using Wilkins-Chalgren agar; format: functional
Clostridioides difficile [5] = test: Antibacterial activity against Clostridium difficile by M11-A5 CLSI agar dilution; format: functional
Clostridioides difficile [6] = test: Antibacterial activity against Clostridium difficile by M11-A7 CLSI agar dilution; format: functional
Clostridioides difficile [7] = test: Antibacterial activity against Clostridium difficile by M11-A6 CLSI agar dilution; format: functional
[8] = Cmax in syrian golden hamster serum at 200 mg administered BID after 1.5 hrs; format: ADME, organism-based, Mesocricetus auratus; design: dose 200 mg
[9] = Apparent elimination half-life in syrian golden hamster at 400 mg/kg; format: ADME, organism-based, Mesocricetus auratus; design: dose 400 mg/kg; conditions: in vivo, read-out: beta t1/2 (converted)
Clostridioides difficile [10] = test: Antibacterial activity against Clostridium difficile by broth microdilution method using Wilkins-Chalgren broth; format: functional
Clostridioides difficile [11] = test: Antibacterial activity against toxin-positive Clostridium difficile clinical isolate by agar dilution method in presence of Tazobactam; format: functional

**Q.** For CC1(C)S[C@@H]2[C@H](NC(=O)[C@H](N)c3ccc(O)cc3)C(=O)N2[C@H]1C(=O)O [AMOXICILLIN], which MIC50 (Clostridioides difficile [1]) is on record?
**A.** Its MIC50 is 1 µg/mL.

**Q.** And the MIC90 (Clostridioides difficile [1])?
**A.** The MIC90 was 1 µg/mL.

**Q.** Which results are given for CO/N=C(\C(=O)N[C@@H]1C(=O)N2C(C(=O)O)=C(CSc3nc(=O)c(O)nn3C)CS[C@H]12)c1csc(N)n1 [CEFTRIAXONE]?
**A.** MIC50 (Clostridioides difficile [2]): 32 µg/mL (≈ 57.7 µM); MIC90 (Clostridioides difficile [2]): 128 µg/mL (≈ 231 µM); Activity (Clostridioides difficile [3]): 1%

**Q.** With CCC[C@@H]1C[C@@H](C(=O)N[C@@H]([C@H]2O[C@H](SC)[C@H](O)[C@@H](O)[C@H]2O)[C@H](C)Cl)N(C)C1 [CLINDAMYCIN] as the compound, how does the MIC50 (Clostridioides difficile [2]) read?
**A.** Its MIC50 is 8 µg/mL (≈ 18.8 µM).

**Q.** And the MIC90 (Clostridioides difficile [2])?
**A.** The MIC90 was > 16 µg/mL.

**Q.** And the Activity (Clostridioides difficile [3])?
**A.** The Activity was 17.3%.

**Q.** Which results are given for CCc1c(Cl)c(O)c(Cl)c(O)c1C(=O)O[C@H]1[C@H](O)[C@H](OC)[C@H](OC/C2=C\C=C\C[C@H](O)/C(C)=C/[C@H](CC)[C@@H](O[C@@H]3OC(C)(C)[C@@H](OC(=O)C(C)C)[C@H](O)[C@@H]3O)/C(C)=C/C(C)=C/C[C@@H]([C@@H](C)O)OC2=O)O[C@@H]1C [FIDAXOMICIN]?
**A.** MIC50 (Clostridioides difficile [2]): 0.25 µg/mL (≈ 0.236 µM); MIC90 (Clostridioides difficile [2]): 0.5 µg/mL (≈ 0.473 µM); MIC50 (Clostridioides difficile [4]): 0.25 µg/mL (≈ 0.236 µM); MIC90 (Clostridioides difficile [4]): 0.25 µg/mL (≈ 0.236 µM); MIC (Clostridioides difficile [5]): ≤ 0.06 µg/mL; MIC50 (Clostridioides difficile [5]): ≤ 0.016 µg/mL; MIC90 (Clostridioides difficile [5]): 0.125 µg/mL (≈ 0.118 µM); MIC50 (Clostridioides difficile [6]): 0.25 µg/mL (≈ 0.236 µM); MIC90 (Clostridioides difficile [6]): 0.5 µg/mL (≈ 0.473 µM); MIC50 (Clostridioides difficile [7]): 0.125 µg/mL (≈ 0.118 µM); MIC90 (Clostridioides difficile [7]): 0.125 µg/mL (≈ 0.118 µM); Cmax [8]: 26.5 ng/mL; half-life [9]: 56.4 min; MIC50 (Clostridioides difficile [10]): 0.0019 µg/mL (≈ 0.0018 µM); MIC90 (Clostridioides difficile [10]): 0.0078 µg/mL (≈ 0.00737 µM)

**Q.** What does the source list for C[C@@H](O)[C@H]1C(=O)N2C(C(=O)O)=C(S[C@@H]3CN[C@H](C(=O)N(C)C)C3)[C@H](C)[C@H]12 [MEROPENEM]?
**A.** MIC50 (Clostridioides difficile [2]): 2 µg/mL (≈ 5.22 µM); MIC90 (Clostridioides difficile [2]): 2 µg/mL (≈ 5.22 µM)

**Q.** For CCN1CCN(C(=O)N[C@@H](C(=O)N[C@@H]2C(=O)N3[C@@H]2SC(C)(C)[C@@H]3C(=O)O)c2ccccc2)C(=O)C1=O [PIPERACILLIN], which MIC50 (Clostridioides difficile [11]) is on record?
**A.** Its MIC50 is 8 µg/mL.

**Q.** And the MIC90 (Clostridioides difficile [11])?
**A.** The MIC90 was 8 µg/mL.

**Q.** For CO[C@H]1/C=C/O[C@@]2(C)Oc3c(C)c(O)c4c(O)c(c(/C=N/N5CCN(C)CC5)c(O)c4c3C2=O)NC(=O)/C(C)=C\C=C\[C@H](C)[C@H](O)[C@@H](C)[C@@H](O)[C@@H](C)[C@H](OC(C)=O)[C@@H]1C [RIFAMPIN], which MIC50 (Clostridioides difficile [2]) is on record?
**A.** Its MIC50 is 0.015 µg/mL (≈ 0.0182 µM).

**Q.** What about the MIC90 (Clostridioides difficile [2]) of the same compound?
**A.** The MIC90 was 0.015 µg/mL (≈ 0.0182 µM).
